Measurements: patent US20190298721A1, “STABLE PRO-VITAMIN DERIVATIVE COMPOUNDS, PHARMACEUTICAL AND DIETARY COMPOSITIONS, AND METHODS OF THEIR USE” (CORNELL UNIVERSITY, priority 2016, published 2019)

What was measured:
[1] = Chemical stability of folates incubated in Defined αMEM at 65° C., read out by L. casei assay; format: physicochemical; conditions: for Chemical stability (support of growth in the microbiological assay): after 24 hours incubation at 65° C., pH 7.2 (FIG. 8); for Chemical stability relative to 5-methyltetrahydrofolate: 65° C., pH 7.2, Defined αMEM (FIG. 8)
Description: Folic acid and various reduced folates were incubated in Defined αMEM (described above) in sterile Eppendorf tubes at 65° C. and sampled at 0, 0.5, 1, 2, 4, 8, and 24 hours. The sampled aliquots were immediately mixed with L. casei extraction buffer containing sodium ascorbate to protect folates from oxidative degradation and frozen at −80° C. The L. casei assay was performed as previously described (Suh et al., “Purification and Properties of a Folate-Catabolizing Enzyme,” J Biol. Chem. 275(45):35646-35655 (2000), which is hereby incorporated by reference in its entirety).

[2] = system: immortalized mouse fibroblasts (CHIP) cells; assay: Cell proliferation of immortalized mouse fibroblasts (CHIP) in Defined αMEM supplemented with folate forms (bright field image analysis); format: cell-based; conditions: range of concentrations, approximately three doublings, compared with Leucovorin and folic acid (FIG. 6B)
Description: (§1) HeLa cells and immortalized mouse fibroblasts (CHIP) cells were plated in 96-well plates, 1000 cells per well. Total cell number was monitored over time using bright field image analysis on a Celigo cytometer (Nexcelom, Inc.) according to manufacturers' protocols. Data was represented as average±standard deviation for 10 biological replicates per condition. Cells were cultured in Defined αMEM culture media (lacking folate, serine, glycine, methionine, nucleosides/nucleotides, and pyridoxine) which was supplemented with 200 μM methionine, 0.5 g/L pyridoxine, and varying concentrations of folic acid, (6S)-Leucovorin or novel folate derivative. Before plating for proliferation assays, HeLa cells and CHIP cells were cultured for three doublings in Defined αMEM lacking folate to deplete intracellular folates.

[3] = system: HeLa cells; assay: Cell proliferation of HeLa cells in Defined αMEM supplemented with folate forms (bright field image analysis); format: cell-based; conditions: range of concentrations, approximately three doublings, compared with Leucovorin and folic acid (FIGS. 6A, 6C)
Description: as §1

[4] = Stability in AIN-93G mouse food pellets; format: physicochemical; conditions: for at least 10 weeks; pellets stored at room temperature or −20° C. (FIGS. 9A-B)
Description: Folic acid and (6S)-5-formyl, 10-formyl-tetrahydrofolate were shipped to Dyets, Bethlehem, Pa. as folate sources for the formulation of AIN-93G, a defined growth diet formulated for rodents by the American Institute of Nutrition. The stability of folic acid and (6S)-5-formyl, 10-formyl-tetrahydrofolate in food pellets was determined over a 10 week period.

[5] = Mice fed AIN-93G diet containing the folate source (growth, adverse symptoms); format: in vivo, mouse; conditions: for Mouse growth: AIN-93G diet with the compound as folate source, over at least an 8-week period
[6] = system: HeLa cells; assay: Total intracellular folate measurement in HeLa cells (L. casei microbiological assay); format: cell-based
Description: HeLa cells were cultured in Defined αMEM (as described above) lacking folate for two doublings to deplete cellular folates, then plated into 6-well plates (1000 cells/well) and cultured for two cell doublings with Defined αMEM culture media (described above) supplemented with 200 μM methionine, 0.5 g/L pyridoxine, and either 2 nM or 20 nM (6S)-Leucovorin or novel folate derivative. Total intracellular folates were quantified using a microbiological (Lactobacillus casei, or L. casei) assay as previously described (Suh et al., “Purification and Properties of a Folate-Catabolizing Enzyme,” J. Biol. Chem. 275(45):35646-35655 (2000), which is hereby incorporated by reference in its entirety). Data is represented as mean±SEM of three biological replicates per condition.

[7] = Acid stability (conversion to 5,10-methenyltetrahydrofolate); format: physicochemical; conditions: conversion to 5,10-methenyltetrahydrofolate in acid; no method described

SMILES	Chemical stability (support of growth in the microbiological assay) [1]	Chemical stability relative to 5-methyltetrahydrofolate [1]	Chemical stability relative to 5-methyltetrahydrofolate ([1]; 10-formyltetrahydrofolate)	Stability as a component of AIN-93G rodent food [4]	Mouse growth [5]	also measured
CN1c2c(nc(N)[nH]c2=O)NC[C@@H]1CNc1ccc(C(=O)N[C@@H](CCC(=O)O)C(=O)O)cc1 [5-methyl-tetrahydrofolate, (6S) 5-methyltetrahydrofolate, reference compound]	completely destroyed					
Nc1nc2c(c(=O)[nH]1)N(C=O)[C@H](CN(C=O)c1ccc(C(=O)N[C@@H](CCC(=O)O)C(=O)O)cc1)CN2 [(6S)-5-formyl, 10-formyltetrahydrofolate]		chemically more stable than 5-methyltetrahydrofolate	increased chemical stability relative to (6S) 5-methyltetrahydrofolate	completely stable	promote mouse growth	Proliferation / support of cell growth ([2]; 10-formylTHF): support cell growth in a similar dose-response as (6S)-Leucovorin and are superior to folic acid; Proliferation / support of cell growth ([3]; 10-formylTHF): support cell growth in a similar dose-response as (6S)-Leucovorin and are superior to folic acid; Adverse symptoms ([5]; mice fed AIN-93G diet containing the compound for 8 weeks): without any adverse symptoms
CN1c2c(nc(N)[nH]c2=O)NC[C@H]1CN(C=O)c1ccc(C(=O)N[C@@H](CCC(=O)O)C(=O)O)cc1 [(6S)-5-methyl, 10-formyltetrahydrofolate]		chemically more stable than 5-methyltetrahydrofolate	increased chemical stability relative to (6S) 5-methyltetrahydrofolate			Proliferation / support of cell growth ([2]; 10-formyl-THF): support cell growth in a similar dose-response as (6S)-Leucovorin and are superior to folic acid; Proliferation / support of cell growth ([3]; 10-formyl-THF): support cell growth in a similar dose-response as (6S)-Leucovorin and are superior to folic acid; Total cellular folate ([6]; HeLa cells cultured with 20 nM compound, compared with 2 nM (6S)-Leucovorin): equivalent to total cellular folate in HeLa cells cultured in 2 nM (6S)-Leucovorin; Total intracellular folate levels ([6]; HeLa cells, 2 nM or 20 nM folate form, (6S)-Leucovorin vs (6S)-5-methyl, 10-formyltetrahydrofolate (FIG. 7)): higher with (6S)-Leucovorin than with (6S)-5-methyl, 10-formyltetrahydrofolate
Nc1nc2c(c(=O)[nH]1)N(C=O)[C@@H](CNc1ccc(C(=O)N[C@@H](CCC(=O)O)C(=O)O)cc1)CN2 [(6S)-Leucovorin, (6S)-5-formyltetrahydrofolate, reference compound]	continued to support growth					Stability in acid [7]: unstable in acid
Nc1nc2ncc(CNc3ccc(C(=O)N[C@@H](CCC(=O)O)C(=O)O)cc3)nc2c(=O)[nH]1 [folic acid, reference compound]	continued to support growth			completely stable	promote mouse growth	
